For this experiment, the system named is Arachidonate 5-lipoxygenase (Cavia porcellus). Put plainly: Inhibitory activity against 5-lipoxygenase at a dose of 0.1 mM.

Consider `CCCCC/C=C\C\C=C/C=C/C=C/C1CC1CCCCC(=O)O` (stereo not given), for which the inhibition worked out at 86%.

`CCCCC/C=C\C/C=C\C/C=C\C=C\C(CO)CCCC(=O)O` (stereo not given) gave an inhibition of 47%.

In turn, `CCCCCCCCCCCCCCC1CC1CCCC(=O)O` (stereo in doubt; 25) displayed an inhibition of 1%.

As for `CCCCC/C=C\C\C=C/C=C/C=C/C1SC1CCCC(=O)OC` (stereo not given), the inhibition stood at 60%.

`CCCCC/C=C\C\C=C/C=C/C=C/[C@@H]1O[C@H]1CCCC(=O)O` showed an inhibition of 78%.

As for `CCCCCCCCCCCCCCC1CC1CCCC(=O)O` (stereo in doubt; 23), the inhibition was determined as 49%.

In the case of `CCCCC/C=C\C/C=C\C/C=C\CC1CC1CCCC(=O)O` (stereo not given), the inhibition stood at 5%.

With `CCCCC/C=C\C/C=C\C/C=C\C=C\C(=O)CCCC(=O)OC`, the inhibition worked out at 93%.

`CCCCC/C=C\C\C=C/C=C/C=C/C1CC1CCCC(=O)O` (stereo not given) displayed an inhibition of 98%.

`CCCCC/C=C\C/C=C\C/C=C\C1(/C=C\CCCC(=O)O)CC1` had an inhibition of 34%.
